Data reported in PMC3243724, “Recognition and Degradation of Plant Cell Wall Polysaccharides by Two Human Gut Symbionts” (PLoS Biology, 2011).
Blank lines part the entries; values can stand above or below the molecule they belong to.

Key:
Assay in all cases: isothermal titration calorimetry
Assay type in all cases: binding
[1] = biological target: T1, BT0366 (arabinan HTCS sensor), periplasmic domain (Bacteroides thetaiotaomicron, UniProt Q8AAU8); settings: 25 °C, HEPES pH 8.0; two-site fit, site 1 (stronger)
T1 construct: gene BT_0366
T1 sequence (Q8AAU8 24-810 limits assumed): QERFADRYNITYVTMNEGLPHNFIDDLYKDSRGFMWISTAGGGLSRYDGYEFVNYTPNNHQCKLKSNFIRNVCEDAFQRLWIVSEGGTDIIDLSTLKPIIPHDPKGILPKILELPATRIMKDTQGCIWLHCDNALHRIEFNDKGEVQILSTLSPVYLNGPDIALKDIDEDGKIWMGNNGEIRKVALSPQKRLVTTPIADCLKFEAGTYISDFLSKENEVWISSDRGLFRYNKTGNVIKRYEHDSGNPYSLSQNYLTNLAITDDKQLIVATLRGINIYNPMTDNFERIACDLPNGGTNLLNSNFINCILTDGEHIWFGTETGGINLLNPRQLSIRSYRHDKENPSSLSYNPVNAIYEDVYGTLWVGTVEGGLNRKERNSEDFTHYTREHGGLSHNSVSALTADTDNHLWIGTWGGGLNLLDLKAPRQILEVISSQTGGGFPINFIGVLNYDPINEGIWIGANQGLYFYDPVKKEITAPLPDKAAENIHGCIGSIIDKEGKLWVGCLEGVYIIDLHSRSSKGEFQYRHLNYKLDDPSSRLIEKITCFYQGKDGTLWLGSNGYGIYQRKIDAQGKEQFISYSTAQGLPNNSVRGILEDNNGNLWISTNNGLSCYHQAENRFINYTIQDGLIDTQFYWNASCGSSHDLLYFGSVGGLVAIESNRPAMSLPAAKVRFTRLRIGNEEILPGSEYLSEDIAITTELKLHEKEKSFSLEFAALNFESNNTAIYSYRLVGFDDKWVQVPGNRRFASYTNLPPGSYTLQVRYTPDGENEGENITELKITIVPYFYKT
Text: isothermal titration calorimetry on BT0366 (arabinan HTCS sensor), periplasmic domain

[2] = biological target: BACOVA_02740 (β-glucan HTCS sensor), periplasmic domain (Bacteroides ovatus, UniProt A0ABU3IRK2); settings: 25 °C, HEPES pH 8.0; for Ka / (M^-1): single-site fit
Chain of BACOVA_02740 (β-glucan HTCS sensor), periplasmic domain (A0ABU3IRK2 21-759 limits assumed): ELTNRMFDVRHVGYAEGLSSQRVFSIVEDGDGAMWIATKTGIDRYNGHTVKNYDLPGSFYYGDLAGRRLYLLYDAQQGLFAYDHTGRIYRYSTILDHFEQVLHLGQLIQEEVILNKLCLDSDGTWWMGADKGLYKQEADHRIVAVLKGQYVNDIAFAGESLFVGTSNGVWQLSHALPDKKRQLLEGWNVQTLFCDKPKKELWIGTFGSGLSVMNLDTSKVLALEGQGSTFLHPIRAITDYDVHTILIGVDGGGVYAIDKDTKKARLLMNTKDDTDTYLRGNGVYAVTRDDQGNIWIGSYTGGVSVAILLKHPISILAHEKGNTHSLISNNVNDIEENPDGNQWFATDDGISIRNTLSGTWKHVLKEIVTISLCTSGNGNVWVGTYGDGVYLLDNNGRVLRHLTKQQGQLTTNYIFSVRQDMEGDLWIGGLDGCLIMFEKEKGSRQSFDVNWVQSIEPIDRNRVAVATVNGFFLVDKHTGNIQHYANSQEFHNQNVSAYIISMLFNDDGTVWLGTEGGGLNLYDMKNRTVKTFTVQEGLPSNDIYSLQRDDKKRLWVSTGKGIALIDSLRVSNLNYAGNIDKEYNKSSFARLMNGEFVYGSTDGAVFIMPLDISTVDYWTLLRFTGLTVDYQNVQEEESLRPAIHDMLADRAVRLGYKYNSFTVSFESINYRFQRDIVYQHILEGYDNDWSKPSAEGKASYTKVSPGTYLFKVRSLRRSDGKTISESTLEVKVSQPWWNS
Text: isothermal titration calorimetry on BACOVA_02740 (β-glucan HTCS sensor), periplasmic domain

[3] = biological target: BACOVA_04394 (xylan HTCS sensor), periplasmic domain (Bacteroides ovatus, UniProt A0ABU3IPP8); settings: 25 °C, HEPES pH 8.0; for Ka: binding seen, too low to fit (TLTF); for Ka / (M^-1): single-site fit
Chain of BACOVA_04394 (xylan HTCS sensor), periplasmic domain (A0ABU3IPP8 21-805 limits assumed): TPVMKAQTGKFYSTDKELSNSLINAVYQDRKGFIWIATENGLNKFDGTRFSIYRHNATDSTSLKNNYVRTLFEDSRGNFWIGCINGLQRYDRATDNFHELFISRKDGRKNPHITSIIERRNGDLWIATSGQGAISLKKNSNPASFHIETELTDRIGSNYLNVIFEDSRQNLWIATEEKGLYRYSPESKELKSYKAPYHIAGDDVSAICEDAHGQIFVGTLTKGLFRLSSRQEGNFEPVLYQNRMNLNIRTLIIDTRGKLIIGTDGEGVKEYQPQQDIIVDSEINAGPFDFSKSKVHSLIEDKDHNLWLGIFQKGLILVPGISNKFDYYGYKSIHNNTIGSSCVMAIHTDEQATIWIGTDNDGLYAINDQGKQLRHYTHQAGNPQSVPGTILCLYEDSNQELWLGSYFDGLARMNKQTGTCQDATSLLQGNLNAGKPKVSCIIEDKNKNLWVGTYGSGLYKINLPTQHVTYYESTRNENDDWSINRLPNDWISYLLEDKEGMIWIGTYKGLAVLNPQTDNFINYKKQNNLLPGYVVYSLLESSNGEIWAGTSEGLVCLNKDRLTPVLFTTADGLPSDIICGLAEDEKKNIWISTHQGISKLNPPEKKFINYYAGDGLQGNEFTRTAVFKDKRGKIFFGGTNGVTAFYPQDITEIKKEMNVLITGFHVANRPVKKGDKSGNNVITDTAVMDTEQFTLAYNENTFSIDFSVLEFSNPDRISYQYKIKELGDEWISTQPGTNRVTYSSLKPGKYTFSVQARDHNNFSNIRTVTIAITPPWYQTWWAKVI
Text: isothermal titration calorimetry on BACOVA_04394 (xylan HTCS sensor), periplasmic domain

Ka / (M^-1) [2]: 3.2E4±0.7
SMILES: OC[C@H]1O[C@@H](O[C@H]2[C@H](O)[C@@H](O)[C@H](O[C@@H]3[C@@H](O)[C@H](O[C@H]4[C@H](O)[C@@H](O)C(O)O[C@@H]4CO)O[C@H](CO)[C@H]3O)O[C@@H]2CO)[C@H](O)[C@@H](O)[C@@H]1O (stereo partly drawn) [Glucotetraose C (β4,3,4)]

Ka / (M^-1) [2]: 3.4E3±1.9
SMILES: OC[C@H]1O[C@@H](O[C@H]2[C@H](O)[C@@H](O)[C@H](O[C@H]3[C@H](O)[C@@H](CO)OC(O)[C@@H]3O)O[C@@H]2CO)[C@H](O)[C@@H](O)[C@@H]1O (stereo partly drawn) [Glucotriose B (β4,3)]

Ka [3]: ∼5.0×10^2
SMILES: OC1OC[C@@H](O[C@@H]2OC[C@@H](O)[C@H](O)[C@H]2O)[C@H](O)[C@H]1O (stereo partly drawn) [Xylobiose]

Ka [3]: ∼5.0×10^2
SMILES: OC1OC[C@@H](O[C@@H]2OC[C@@H](O[C@@H]3OC[C@@H](O[C@@H]4OC[C@@H](O[C@@H]5OC[C@@H](O[C@@H]6OC[C@@H](O)[C@H](O)[C@H]6O)[C@H](O)[C@H]5O)[C@H](O)[C@H]4O)[C@H](O)[C@H]3O)[C@H](O)[C@H]2O)[C@H](O)[C@H]1O (stereo partly drawn) [Xylohexaose]

Ka / (M^-1) [3]: 8.8E4±2.9
SMILES: OC1OC[C@@H](O[C@@H]2OC[C@@H](O[C@@H]3OC[C@@H](O[C@@H]4OC[C@@H](O[C@@H]5OC[C@@H](O)[C@H](O)[C@H]5O)[C@H](O)[C@H]4O)[C@H](O)[C@H]3O)[C@H](O)[C@H]2O)[C@H](O)[C@H]1O (stereo partly drawn) [Xylopentaose]

Ka / (M^-1) [3]: 6.8E5±1.2
SMILES: OC1OC[C@@H](O[C@@H]2OC[C@@H](O[C@@H]3OC[C@@H](O[C@@H]4OC[C@@H](O)[C@H](O)[C@H]4O)[C@H](O)[C@H]3O)[C@H](O)[C@H]2O)[C@H](O)[C@H]1O (stereo partly drawn) [Xylotetraose]

Ka / (M^-1) [3]: 1.1E3±0.1
SMILES: OC1OC[C@@H](O[C@@H]2OC[C@@H](O[C@@H]3OC[C@@H](O)[C@H](O)[C@H]3O)[C@H](O)[C@H]2O)[C@H](O)[C@H]1O (stereo partly drawn) [Xylotriose]

The remaining lines, values behind:

SMILES: OC[C@@H]1O[C@@H](OC[C@@H]2O[C@@H](OC[C@@H]3O[C@@H](OC[C@@H]4O[C@@H](OC[C@@H]5O[C@@H](OC[C@@H]6O[C@@H](OC[C@@H]7OC(O)[C@H](O)[C@H]7O)[C@H](O)[C@H]6O)[C@H](O)[C@H]5O)[C@H](O)[C@H]4O)[C@H](O)[C@H]3O)[C@H](O)[C@H]2O)[C@H](O)[C@H]1O (stereo partly drawn) [Arabinoheptaose]
Ka / (M^-1) [1]: 3.5E4±0.6

SMILES: OC[C@@H]1O[C@@H](OC[C@@H]2O[C@@H](OC[C@@H]3O[C@@H](OC[C@@H]4O[C@@H](OC[C@@H]5O[C@@H](OC[C@@H]6OC(O)[C@H](O)[C@H]6O)[C@H](O)[C@H]5O)[C@H](O)[C@H]4O)[C@H](O)[C@H]3O)[C@H](O)[C@H]2O)[C@H](O)[C@H]1O (stereo partly drawn) [Arabinohexaose]
Ka / (M^-1) [1]: 3.9E3±0.9

SMILES: OC[C@@H]1O[C@@H](OC[C@@H]2O[C@@H](OC[C@@H]3O[C@@H](OC[C@@H]4O[C@@H](OC[C@@H]5O[C@@H](OC[C@@H]6O[C@@H](OC[C@@H]7O[C@@H](OC[C@@H]8OC(O)[C@H](O)[C@H]8O)[C@H](O)[C@H]7O)[C@H](O)[C@H]6O)[C@H](O)[C@H]5O)[C@H](O)[C@H]4O)[C@H](O)[C@H]3O)[C@H](O)[C@H]2O)[C@H](O)[C@H]1O (stereo partly drawn) [Arabinooctaose]
Ka / (M^-1) [1]: 4.8E4±0.1

SMILES: OC[C@H]1O[C@@H](O[C@@H]2[C@@H](O)[C@H](O[C@H]3[C@H](O)[C@@H](O)[C@H](O[C@H]4[C@H](O)[C@@H](O)[C@H](O[C@H]5[C@H](O)[C@@H](O)C(O)O[C@@H]5CO)O[C@@H]4CO)O[C@@H]3CO)O[C@H](CO)[C@H]2O)[C@H](O)[C@@H](O)[C@@H]1O (stereo partly drawn) [Glucopentaose A (β3,4,4,4)]
Ka ([2]; binding seen, too low to fit (TLTF)): ∼5.0×10^2

SMILES: OC[C@H]1O[C@@H](O[C@H]2[C@H](O)[C@@H](O)[C@H](O[C@H]3[C@H](O)[C@@H](O)[C@H](O[C@H]4[C@H](O)[C@@H](CO)OC(O)[C@@H]4O)O[C@@H]3CO)O[C@@H]2CO)[C@H](O)[C@@H](O)[C@@H]1O (stereo partly drawn) [Glucotetraose B (β4,4,3)]
Ka / (M^-1) [2]: 2.5E3±1.3
